In PMC7525093, “Bis-Quinolinium Cyclophane Blockers of SK Potassium Channels Are Antagonists of M3 Muscarinic Acetylcholine Receptors” (Frontiers in Pharmacology, 2020):

Target: T1, M5 muscarinic receptor (Homo sapiens, UniProt P08912)
T1 construct: expressed in transfected cells; host or cells: CHO cells, transiently co-transfected with pCMV R-CEPIAer
T1 sequence (P08912 1-532): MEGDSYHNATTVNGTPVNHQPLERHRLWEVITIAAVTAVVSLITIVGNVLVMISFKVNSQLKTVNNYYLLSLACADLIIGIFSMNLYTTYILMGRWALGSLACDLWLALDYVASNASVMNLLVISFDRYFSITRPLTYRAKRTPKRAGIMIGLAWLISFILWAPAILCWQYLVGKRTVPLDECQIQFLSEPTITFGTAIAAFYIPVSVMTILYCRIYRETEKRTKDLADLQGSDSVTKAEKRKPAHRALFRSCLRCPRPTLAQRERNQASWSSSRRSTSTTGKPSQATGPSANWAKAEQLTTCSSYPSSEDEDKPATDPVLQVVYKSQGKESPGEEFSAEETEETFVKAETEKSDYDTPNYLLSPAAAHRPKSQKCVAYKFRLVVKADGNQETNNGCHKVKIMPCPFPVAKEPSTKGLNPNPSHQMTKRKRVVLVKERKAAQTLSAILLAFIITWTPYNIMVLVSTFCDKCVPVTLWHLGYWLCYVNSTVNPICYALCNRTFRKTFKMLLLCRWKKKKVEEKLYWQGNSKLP
Experiment: R-CEPIAer ER calcium assay, CHO cells transiently transfected with M5 receptor
Type: cell-based
Protocol: [Worded in the source for another target; used here, by the source, with some conditions changed.] The binding of antagonists to Gq-coupled receptors was determined by measuring IP3-mediated calcium depletion from the endoplasmic reticulum (ER). This was accomplished using CHO-K1 cells stably transfected with human M3 muscarinic acetylcholine receptor (CEM3000000, cDNA Resource Center, Bloomsburg University) and R-CEPIAer, a low affinity ER-targeted calcium indicator fluorescent protein ([Suzuki et al., 2014]). R-CEPIAer reporting of ER calcium concentration was assessed using 564 nm excitation light (>590 long-pass emission) at 20 second intervals on a Nikon swept-field confocal microscope using slit-scan mode, 2x2 Binning, and 100 millisecond frames. F/Fmax was fluorescence intensity normalized to maximal fluorescence intensity during the experiment. The response of cells to Gq-coupled receptor agonist were measured as the change in F/Fmax (ΔF/Fmax) from preagonist value to fluorescence minimum during agonist application (that occurs by IP3-mediated ER calcium depletion). […] Perfusion of each agonist application was for 2 min, while the antagonist overlapped and preceded the second agonist application by 3 min. […] IC50 was calculated by assaying fractional inhibition using a dose-response of antagonist concentrations (i.e. Figure 1D ). […]

## c1cc2cc(c1)C[n+]1ccc(c3ccccc31)NCc1ccc(cc1)CNc1cc[n+](c3ccccc13)C2 [UCL 1684, 6,12,19,20,25,26-Hexahydro-5,27:13,18:21,24-trietheno-11,7-metheno-7H-dibenzo [b,n] [1,5,12,16]tetraazacyclotricosine-5,13-diium dibromide]
  IC50: 520 nM
0.5 μM carbachol
  Hill slope of inhibition curve, M5 receptor: 1.4 ± 0.17
